Article PMC12650265 (The Journal of Experimental Medicine, 2025)
Entries after “also recorded” stand apart in the source; their conditions may differ.

Key:
[1] = biological target: T1, hMR1 protein (Homo sapiens, UniProt Q95460); assay: fluorescence polarization–based cell-free assay, competition with JYM20 for MR1 binding; details: 50% inhibition of 10 nM JYM20 binding to 100 nM empty hMR1, 37°C; three independent experiments in triplicate
T1 construct: plasmids encoding for the extracellular domains of MR1, β2m, and the AF-7 TCRα and TCRβ chains; made in house; host or cells: Escherichia coli BL21(DE3)

[2] = tested on: T2, human MR1–β2-microglobulin (β2m) complex; assay: refolding of recombinant MR1-β2m with ligand; format: binding; details: ligand added to refolding buffer; gel filtration and SDS-PAGE
T2 construct: plasmids encoding for the extracellular domains of MR1, β2m, and the AF-7 TCRα and TCRβ chains; made in house

[3] = tested on: T3, surface MR1*01 on C1R.MR1 cells; assay: quantification of cell surface MR1 by flow cytometry, C1R.MR1 cells; format: cell-based, human; details: C1R.MR1 cells, 1–200 µM, 8F2F9 antibody
T3 construct: expressed in transfected cells; host or cells: C1R B lymphoblastoid cells transduced with MR1*01

[4] = tested on: T4, MR1 in C1R.MR1 cells; assay: Endo H treatment and western blot of intracellular MR1; format: cell-based, human; details: 16 h, Ac-6-FP 10 μM, RF and catabolites 100 μM
T4 construct: expressed in transfected cells; host or cells: C1R B lymphoblastoid cells transduced with MR1*01
Procedure: The downregulation of MR1 on the cell surface by the RF catabolites could be due to the depletion of the intracellular ER-resident MR1 pool, or due to the retention of MR1 in the ER, as shown for the DB28 ligand ([Salio et al., 2020]). To investigate this, C1R.MR1 cells were treated for 16 h with 100 µM RF or RF catabolites, conditions that induce MR1 downregulation (Fig. 3 A). Cells were lysed, and treated with endoglycosidase (Endo) H, to distinguish molecules that remain within the ER from those that have trafficked to the cell surface ([McWilliam et al., 2016]), and then, MR1 levels were assessed by immunoblotting (Fig. 3 A).
C1R.MR1 cells were cultured with different RF catabolites for 16 h, at 37°C. Samples were then treated with or without Endo H for 1-h incubation at 37°C. Cells were lysed, and lysate protein concentration was quantified by BCA assay. Equal amounts of samples (40 µg total protein) were separated on SDS-PAGE gels before being transferred onto nitrocellulose membranes and incubated with primary (anti-MR1; clone 8G3) ([McWilliam et al., 2020]) then corresponding secondary antibody (IRDye 800CW anti-mouse IgG, Cat. No. 925-32210; LICORbio). The protein bands were visualized by the Li-Cor system.

[5] = tested on: T5, MR1^R9H on C1R.MR1^R9H cells; assay: cell surface MR1^R9H by flow cytometry; format: cell-based, human
T5 construct: expressed in transfected cells; host or cells: C1R cells stably transduced with MR1^R9H
Description: (§1) We then tested the effect of the RF catabolites on the expression of two mutant versions of MR1 termed MR1^R9H ([Howson et al., 2020]) and MR1^K43A ([Reantragoon et al., 2013]). First, we tested the MR1^R9H mutant ([Howson et al., 2020]), which represents a rare, natural human polymorph. […] We used C1R.MR1^R9H cells, which are produced by stable transduction of wild-type C1R cells, which express low levels of wild-type MR1, with a vector expressing the MR1^R9H mutant ([Howson et al., 2020]). […] When C1R. […] Next, we sought to understand how the previously characterized K43A mutation affects ligand binding.
The level of MR1 expressed on the cell surface was measured after the exposure to the investigated ligands as previously described ([Awad et al., 2020a]; [Wang et al., 2022a]). C1R Ag-presenting B lymphocytes overexpressing MR1*01 (C1R.MR1), MR1^K43A mutant (C1R.MR1^K43A), MR1^R9H mutant (C1R.MR1^R9H), or HLA-A*02:01 (C1R-A2), in addition to the monocytic THP-1-MR1 cells, were used in this study. […] The PE fluorescence intensity reflects the surface MR1 level. The data were acquired with LSRFortessa X-20 (BD Biosciences) and Diva software (BD Biosciences) and analyzed using FlowJo software (BD Biosciences).

[6] = tested on: T6, MR1^K43A on C1R.MR1^K43A cells; assay: cell surface MR1^K43A by flow cytometry; format: cell-based, human; details: 16 h
T6 construct: expressed in transfected cells; host or cells: C1R cells overexpressing MR1^K43A
Description: as §1
The level of MR1 expressed on the cell surface was measured after the exposure to the investigated ligands as previously described ([Awad et al., 2020a]; [Wang et al., 2022a]). C1R Ag-presenting B lymphocytes overexpressing MR1*01 (C1R.MR1), MR1^K43A mutant (C1R.MR1^K43A), MR1^R9H mutant (C1R.MR1^R9H), or HLA-A*02:01 (C1R-A2), in addition to the monocytic THP-1-MR1 cells, were used in this study. 2 × 10^5 cells were incubated with RF catabolites for 3 or 16 h at 37°C and 5% CO2 in 200 μl folate-free RPMI 1640 medium from Gibco (Cat. No. 11875-093) fortified with 10% fetal bovine serum, sodium pyruvate (1 mmol/L), HEPES buffer (15 mmol/L), pH 7.2–7.5, 2% penicillin (100 U/ml), streptomycin ([…]), GlutaMAX (2 mmol/L), nonessential amino acids (0.1 mmol/L) (all from Thermo Fisher Scientific, Life Technologies), and 2-mercaptoethanol ([…], Sigma-Aldrich) (RF-10). After incubation, the cells were first stained with Zombie Aqua Fixable Viability Kit from BioLegend (Cat. No. 423102) and then incubated with biotinylated 8F2F9 αMR1 antibody for 30 min on ice. The unbound antibody was then washed off with 2% fetal bovine serum/PBS (called 2% FACS hereafter) buffer. The cells were finally incubated with PE-conjugated streptavidin (30 μg/ml; BioLegend) and then washed with 2% FACS buffer. The PE fluorescence intensity reflects the surface MR1 level. The data were acquired with LSRFortessa X-20 (BD Biosciences) and Diva software (BD Biosciences) and analyzed using FlowJo software (BD Biosciences).

[7] = tested on: T7, MR1 on C1R.MR1 cells; assay: competition with Ac-6-FP or 5-OP-RU for MR1 upregulation, C1R.MR1 cells; format: cell-based, human; details: 1–200 µM overnight
T7 construct: expressed in transfected cells; host or cells: C1R B lymphoblastoid cells transduced with MR1*01

[8] = tested on: T8, MR1 on THP-1.MR1 cells; assay: competition with Ac-6-FP for MR1 upregulation, THP-1.MR1 cells; format: cell-based, human; details: 1–200 µM overnight, then 10 µM Ac-6-FP for 3 h
T8 construct: expressed in transfected cells; host or cells: THP-1 monocytic cells transduced with MR1

[9] = tested on: SKW-3 cells expressing MAIT TCR AF-7; assay: SKW-3 reporter T cell activation (CD69), coculture with C1R.MR1; format: cell-based
Procedure: (§2) Given the intracellular MR1 retention induced by the RF catabolites, we anticipated that these ligands could influence the activity of MR1-reactive T cells. First, we utilized a system whereby reporter SKW-3 T cell lines were cocultured with C1R.MR1 APCs and activation was determined by CD69 expression. […] In contrast, SKW-3-MBV28 cells were inhibited by alloxazine but activated by lumichrome (Fig. S3, D–F). Two MR1-restricted TRAV1-2^−ve SKW-3 T cell lines were also tested.
(§3) C1R.MR1 cells (1 × 10^5) were initially stained with CTV (Thermo Fisher Scientific) for 15 min and then incubated with RF catabolites for 20 h. […] Cells were subsequently stained with PE-Cy7-conjugated anti-CD69 (1:100; BD Biosciences) and PE-labeled anti-MR1 (1:100, clone 26.5; BD Biosciences), before analysis on a LSRFortessa (BD Biosciences) flow cytometer. Activation of the SKW-3 cells was reflected by the cell surface CD69 expression.

[10] = tested on: SKW-3 cells expressing MAIT TCR MBV28; assay: as above; format: cell-based; details: SKW-3 MBV28 cocultured with C1R.MR1, no agonist
Procedure: as §2, §3

[11] = tested on: MAIT and TRAV1-2^−ve cells from PBMCs; assay: TCR-independent or bead stimulation of PBMCs (PMA and ionomycin, αCD3/αCD28 beads); format: cell-based, human; details: PBMCs preincubated 16 h, then PMA and ionomycin; MAIT or non-MAIT TRAV1-2^−ve cells
[12] = tested on: soluble WT MR1; assay: fluorescence-based thermal shift (thermostability) assay of MR1–ligand complexes; format: binding, human; details: MR1 refolded with the ligand; SYPRO Orange, 28 to 95°C; three independent experiments
[13] = tested on: T9, folded MR1 in C1R.MR1 cells; assay: intracellular total folded MR1 by flow cytometry (8F2.F9); format: cell-based, human; details: 16 h, 100 µM
T9 construct: expressed in transfected cells; host or cells: C1R B lymphoblastoid cells transduced with MR1*01

T1 sequence (Q95460 23-302 limits assumed): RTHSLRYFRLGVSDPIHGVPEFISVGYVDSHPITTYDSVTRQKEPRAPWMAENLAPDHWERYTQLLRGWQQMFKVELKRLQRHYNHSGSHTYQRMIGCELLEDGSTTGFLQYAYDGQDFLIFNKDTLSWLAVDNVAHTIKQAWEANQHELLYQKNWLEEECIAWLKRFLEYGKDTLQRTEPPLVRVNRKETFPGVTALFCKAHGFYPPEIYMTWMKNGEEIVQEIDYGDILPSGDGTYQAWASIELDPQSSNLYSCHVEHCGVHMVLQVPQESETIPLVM
T1 sequence (P61769 21-119 partner): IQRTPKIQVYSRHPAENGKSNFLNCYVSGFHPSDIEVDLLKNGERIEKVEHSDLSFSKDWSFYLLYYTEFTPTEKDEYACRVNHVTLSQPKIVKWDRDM

Row | SMILES | IC50 [1] | folding of the MR1-β2m cocomplex in solution [2] | MR1 cell surface expression ([3]; 3 h) | MR1 cell surface expression ([3]; 16 h) | Endo H–resistant MR1 [4] | MR1^R9H surface level [5] | MR1^K43A at the cell surface [6] | effect on Ac-6-FP–induced cell surface upregulation of MR1 ([7]; then 10 µM Ac-6-FP for 3 h) | effect on 5-OP-RU–induced cell surface upregulation of MR1 ([7]; then 5-OP-RU for 3 h) | effect on Ac-6-FP–induced cell surface upregulation of MR1 [8] | reactivity to 5-OP-RU (CD69) ([9]; SKW-3-AF-7, in the presence of 1 nM 5-OP-RU) | reactivity to RL-7-Me (CD69) ([9]; SKW-3-AF-7, in the presence of 100 nM RL-7-Me) | activation (CD69 expression), ligand alone ([9]; SKW-3 AF-7 cocultured with C1R.MR1, no agonist) | activation (CD69 expression), ligand alone [10] | block of CD69 upregulation and TNF production [11] | Tm50 (half-maximum melting temperature), Mean ± SD [12] | total level of folded MR1 (intracellular staining with 8F2.F9) [13]
1 | Cc1cc2nc3c(=O)[nH]c(=O)nc-3n(C[C@H](O)[C@H](O)[C@H](O)CO)c2cc1C [RF, riboflavin] | 182 µM | did not sponsor refolding of MR1 | did not alter MR1 expression from the baseline | modestly upregulated MR1; also recorded: modest increase | Neither RF nor its catabolites induced any Endo H–resistant MR1 | did not deviate from the background level | MR1 upregulation continues | did not modulate | did not modulate | did not modulate | not altered | activation was enhanced | not activated | not activated | neither RF nor RF catabolites could block |  | 
2 | CC(=O)Nc1nc2ncc(C=O)nc2c(=O)[nH]1 [Ac-6-FP, acetyl-6-FP, reference compound] |  |  |  |  | increase in MR1 of a higher molecular weight, in line with Endo H resistance | significantly increased |  |  |  |  |  |  |  |  |  | 64.22 ± 0.27 °C | significantly increased total folded MR1
3 | Cc1cc2nc3c(=O)[nH]c(=O)nc-3n(CC=O)c2cc1C [FMF, 10-formylmethylflavin] | 53.6 µM | facilitated the correct folding of the MR1-β2m cocomplex |  |  |  |  |  |  |  |  |  |  |  |  |  |  | increased the total level of folded MR1
